# Data as given in patent publication US4129659A, “Method for improving cardiovascular function with salinomycin” (The University of Miami, priority 1977, dated 1978).
# Read-outs that look alike come from different tables or passages of the source.
# Key:
# [1] = test system: heart and coronary circulation of anesthetized dogs; assay: Physiological effects of ionophores in anesthetized dogs: inotropic and coronary flow potency relative to lasalocid; format: in vivo, dog
# Procedure: Extended experimental studies were conducted involving a number of ionophores.
# ^1 Studies conducted on anesthetized dogs.
# ^2 Ionotropic potencies are expressed as the reciprocal of the dose
# required to double dP/dt Max., relative to the dose of Lasolocid required
# ^3 Coronary flow potency is calculated as the inotropic potency,
# normalized for coronary flow by the factor: coronary flow increased
# produced by doubling dose of the test ionophore/coronary flow produced by
# the doubling dose of Lasalocid.
# [2] = test system: erythrocytes of whole fresh human blood; assay: RBC K+ leak: release of erythrocyte potassium into plasma fraction in vitro; format: cell-based; details: for Ratio 2/4 (coronary flow potency / RBC K+ leak potency): dog coronary flow vs human RBC K+ leak; for Ratio 2/4 (coronary flow potency / RBC K+ leak potency) / Ratio 1/4 (inotropic potency / RBC K+ leak potency) / RBC K+ Leak Potency (column 4): relative to lasalocid; for Ratio 1/4 (inotropic potency / RBC K+ leak potency): dog inotropy vs human RBC K+ leak; for RBC K+ Leak Potency (column 4): reciprocal of concentration which leaked 15 mM K+/hr from erythrocytes
# Procedure: ^4 RBC K^+ leak potency is the reciprocal of the concentration
# which leaked 15 mMK^+ /hr. from the erythrocytes of whole fresh human
# blood, relative to that of Lasalocid. The reference concentration of
# The intrinsic ability of the test ionophores to release cellular potassium was measured using whole human blood and assaying the release of erythrocyte potassium into the plasma fraction in vitro.
# [3] = test system: skeletal and cardiac muscle; details: prior finding ("it has been shown"); in words; cited from earlier work
# cardiac muscle = details: in words; cited from earlier work
# heart = assay: Studies in anesthetized normal and infarcted dogs and isolated guinea pig and rabbit hearts; format: in vivo, dog; details: in words
# Solubility in water = format: physicochemical; details: in words
# intra-cellular Na+ = assay: Intracellular cation exchange (Na+ for K+); details: in exchange for K+; in words
# Oral LD50 in dogs = details: dog, in vivo, oral administration
# [4] = test system: skeletal and cardiac muscle; assay: Skeletal and cardiac myopathy upon chronic administration; format: in vivo; details: in words
# [5] = test system: heart and coronary circulation of anesthetized dogs; assay: Hemodynamic effects of intravenous salinomycin in anesthetized normal dogs; format: in vivo, dog (normal female mongrel dogs); details: for Coronary Flow, % of Control / dP/dt, % of Control: Table 1
# Procedure: Normal female mongrel dogs, weighing 30-35 lbs., were anesthetized with intravenous sodium pentobarbital (20 mg/kg.) and artificially ventilated. […] The derivative of the left ventricular pressure (dP/dt) was obtained from a Millar micromanometer-tipped catheter after differentiation by an appropriate R-C circuit. The electrocardiogram was monitored from standard leads attached to the extremities of the dog. All parameters were recorded simultaneously and continuously by a multichannel photographer recorder, and were monitored during the experiments by a multichannel oscilloscope.
# After all vital parameters had become stable, 0.03 mg/kg of salinomycin in absolute ethanol was administered over a period of 30 seconds to 1 minute. An hour later a larger dose of 0.06 mg/kg was administered to the same dog.
# Further information on the hemodynamic effects of salinomycin were obtained in a study involving seven dogs. Using the same procedure set forth hereinabove and after all vital parameters had become stable, 0.075 mg/kg of salinomycin in absolute ethanol was administered over a period of 30 seconds to one minute.
# Oral LD50 in chickens = details: chicken, in vivo, oral administration
# [6] = inotropic potency normalized for coronary flow increase at doubling dose, relative to lasalocid, anesthetized dogs
# [7] = reciprocal of dose required to double dP/dt Max., relative to lasalocid, anesthetized dogs
# [8] = 0.03 mg/kg in absolute ethanol, anesthetized dog
# [9] = 0.06 mg/kg, an hour after 0.03 mg/kg, same dog
# [10] = 0.075 mg/kg, seven dogs, P <.001
# [11] = 0.075 mg/kg, seven dogs, P <.01
compound,measurement,setting,value
COC1CCC(OC2C(C)C(O)(C(C)C(=O)O)OC(CC3CC(OC)C(C)C4(O3)OC(C)(C3CCC(C5CCC(C6OC(C)(O)C(C)C(OC)C6C)O5)O3)C(OC)C4C)C2(C)OC)OC1C (stereo not drawn) [A-204],coronary flow potency compared with salinomycin,[1]; in words,markedly reduced coronary flow potency than salinomycin
same,inotropic potency compared with salinomycin,[1]; in words,slightly higher inotropic potency than salinomycin
same,Coronary Flow Potency,[1]; [6],14.1
same,Inotropic Potency,[1]; [7],13.1
same,Ratio 2/4 (coronary flow potency / RBC K+ leak potency),[2],.34
same,Ratio 1/4 (inotropic potency / RBC K+ leak potency),[2],.32
same,increase in potassium cellular leakage potency compared with salinomycin,[2]; human,400%
same,RBC K+ Leak Potency (column 4),[2],41.0
same,skeletal and cardiac myopathy upon chronic administration,[3],exhibits the undesirable side effects of skeletal and cardiac myopathy upon chronic administration
CO[C@H]1CC[C@@H](O[C@H]2C[C@H]([C@]3(C)CC[C@]4(C[C@H](O)[C@@H](C)[C@@H]([C@@H](C)/C=C(\C)C(=O)[C@H](C)C[C@H](C)C(=O)O)O4)O3)O[C@]3(O[C@@H]([C@H]4O[C@@](O)(CO)[C@H](C)C[C@@H]4C)C[C@@H]3C)[C@@H]2C)O[C@@H]1C [Dianemycin],Coronary Flow Potency,[1]; [6],4.6
same,Inotropic Potency,[1]; [7],4.3
same,Ratio 2/4 (coronary flow potency / RBC K+ leak potency),[2],.25
same,Ratio 1/4 (inotropic potency / RBC K+ leak potency),[2],.24
same,RBC K+ Leak Potency (column 4),[2],18.0
"CC[C@@H](C(=O)[C@@H](C)[C@@H](O)[C@H](C)CCc1ccc(C)c(O)c1C(=O)O)[C@H]1O[C@](CC)([C@H]2CC[C@](O)(CC)[C@H](C)O2)C[C@@H]1C [Lasalocid, lasalocid]",Coronary Flow Potency,[1],1.0
same,Inotropic Potency,[1],1.0
same,Ratio 2/1 (coronary flow potency / inotropic potency),"[1]; relative to lasalocid, anesthetized dogs",1.0
same,Ratio 2/4 (coronary flow potency / RBC K+ leak potency),[2],1.0
same,Ratio 1/4 (inotropic potency / RBC K+ leak potency),[2],1.0
same,concentration which leaked 15 mM K+/hr. from erythrocytes,[2]; human,11.5 µM
same,cardiac effects (prior art),cardiac muscle,cardiotrophic properties
CC[C@@]1([C@@H]2O[C@@H]([C@H]3O[C@@](O)(CO)[C@H](C)C[C@@H]3C)C[C@@H]2C)CC[C@H]([C@]2(C)CC[C@]3(C[C@H](O)[C@@H](C)[C@@H]([C@@H](C)[C@@H](OC)[C@H](C)C(=O)O)O3)O2)O1 [Monensin],Coronary Flow Potency,[1]; [6],10.0
same,Inotropic Potency,[1]; [7],6.1
same,Ratio 2/4 (coronary flow potency / RBC K+ leak potency),[2],1.4
same,Ratio 1/4 (inotropic potency / RBC K+ leak potency),[2],.84
same,RBC K+ Leak Potency (column 4),[2],7.2
COC1CC(CC2CCC(C)C(C(C)C(=O)O)O2)OC2(OC(C)(C3CCC(C)(C4OC(C5OC(O)(CO)C(C)CC5C)CC4C)O3)CC2C)C1C (stereo not drawn) [Nigerlcin],Coronary Flow Potency,[1]; [6],3.4
same,Inotropic Potency,[1]; [7],2.8
same,Ratio 2/4 (coronary flow potency / RBC K+ leak potency),[2],.21
same,Ratio 1/4 (inotropic potency / RBC K+ leak potency),[2],.17
same,RBC K+ Leak Potency (column 4),[2],16.4
"CC[C@@H](C(=O)[C@@H](C)[C@@H](O)[C@H](C)[C@@H]1O[C@@H]([C@@H](CC)C(=O)O)CC[C@@H]1C)[C@H]1O[C@]2(C=C[C@@H](O)[C@]3(CC[C@@](C)([C@H]4CC[C@](O)(CC)[C@H](C)O4)O3)O2)[C@H](C)C[C@@H]1C [Salinomycin, salinomycin]",separation between positive inotropy and coronary vasodilation,"[1]; compared with other carboxylic ionophores, in words",more pronounced separation between the two principal cardiotonic responses of positive inotropy and coronary vasodilation
same,Coronary Flow Potency,[1]; [6],19.6
same,Inotropic Potency,[1]; [7],12.1
same,"effect on cardiac output, coronary flow and myocardial work efficiency",heart,"increases in cardiac output, coronary flow and myocardial work efficiency"
same,effect on coronary arteries,heart,dilates the coronary arteries
same,effect on force of myocardial contraction and heart rate,heart,increases the force of myocardial contraction and heart rate
same,effect on total peripheral resistance,heart,decreases the total peripheral resistance
same,solubility in water,Solubility in water,minimal solubility in water
same,effect on intra-cellular Na+,intra-cellular Na+,increase in intra-cellular Na^+ in exchange for K^+
same,LD50,Oral LD50 in dogs,10 mg/kg
same,skeletal and cardiac myopathy upon chronic administration,[4],This undesirable effect has not been shown
same,"Coronary Flow, % of Control",[5]; [8],175%
same,"dP/dt, % of Control",[5]; [8],131%
same,"Coronary Flow, % of Control",[5]; [9],375%
same,"dP/dt, % of Control",[5]; [9],180%
same,"Cardiac Output, Mean % Control",[5]; [10],178%
same,"dP/dt Max., Mean % Control",[5]; [10],204%
same,"Coronary Flow, Mean % Control",[5]; [11],522%
same,"Coronary Resistance, Mean % Control",[5]; [11],38%
same,"Heart Rate, Mean % Control",[5]; [11],113%
same,"Total Peripheral Resistance, Mean % Control","[5]; 0.075 mg/kg, seven dogs, P <.02",77%
same,Cardiac Output + Salinomycin (mean ± SE),"[5]; 0.075 mg/kg, seven dogs, control 1.83 ± .2, P <.001",3.2 ± .2 L/min
same,Coronary Flow + Salinomycin (mean ± SE),"[5]; 0.075 mg/kg, seven dogs, control 21 ± 4.8, P <.01",93 ± 19 mL/min
same,Heart Rate + Salinomycin (mean ± SE),"[5]; 0.075 mg/kg, seven dogs, control 152 ± 7, P <.01",170 ± 4 min.^-1
same,Coronary Resistance + Salinomycin (mean ± SE),"[5]; 0.075 mg/kg, seven dogs, control 460 ± 98, P <.01",150 ± 25 dynes sec cm^-5
same,dP/dt Max. + Salinomycin (mean ± SE),"[5]; 0.075 mg/kg, seven dogs, control 2340 ± 265, P <.001",4700 ± 618 mm. Hg sec^-1
same,Total Peripheral Resistance + Salinomycin (mean ± SE),"[5]; 0.075 mg/kg, seven dogs, control 4200 ± 600, P <.02",3200 ± 400 dynes sec cm^-5
same,ED (2-fold dP/dt max),"[5]; Canis lupus familiaris, iv, in absolute ethanol, anesthetized dogs, read-out: dose that doubles left ventricular max. dP/dt",0.075 mg/kg
same,"cardiovascular effects (inotropic, chronotropic)",[5]; in words,positive inotropic effects with minimal chronotropic effects
same,"pharmacological effect vs potassium release, compared with other carboxylic ionophores","[2]; Table 3, columns 5 and 6, in words",superior to all other carboxylic ionophores examined
same,Ratio 2/4 (coronary flow potency / RBC K+ leak potency),[2],1.96
same,Ratio 1/4 (inotropic potency / RBC K+ leak potency),[2],1.21
same,RBC K+ Leak Potency (column 4),[2],10.0
same,LD50,Oral LD50 in chickens,125 mg/kg
CO[C@H]1C[C@@H](C[C@H]2O[C@@](O)([C@H](C)C(=O)O)[C@H](C)[C@H](OC)[C@@]2(C)O[C@H]2CC[C@@H](OC)[C@H](C)O2)O[C@]2(O[C@@](C)([C@@H]3CC[C@H]([C@H]4CC[C@H]([C@H]5O[C@](C)(O)[C@H](C)C[C@@H]5C)O4)O3)[C@H](OC)[C@H]2C)[C@@H]1C [Septamycin],Inotropic Potency,[1]; [7],2.0
CC[C@@H]1O[C@@H]([C@]2(C)C[C@@H](C)[C@](O)([C@]3(C)CC[C@@H]([C@@H](O)[C@]4(O)O[C@H](C[C@@]5(O)O[C@@H]([C@@H](C)[C@H](O)C[C@H]6CC[C@H](C)[C@@H]([C@@H](C)C(=O)O)O6)CC[C@@H]5C)[C@@H](C)C[C@H]4C)O3)O2)CC[C@@]1(C)O [X-206],Coronary Flow Potency,[1]; [6],8.6
same,Inotropic Potency,[1]; [7],7.7
same,Ratio 2/4 (coronary flow potency / RBC K+ leak potency),[2],.79
same,Ratio 1/4 (inotropic potency / RBC K+ leak potency),[2],.70
same,RBC K+ Leak Potency (column 4),[2],10.9
NCCc1ccc(O)c(O)c1 [dopamine],cardiac effects (prior art),cardiac muscle,exerts positive inotropic and chronotropic effects
Lysocellin,Inotropic Potency,[1]; [7],1.5
same,Ratio 1/4 (inotropic potency / RBC K+ leak potency),[2],.36
same,RBC K+ Leak Potency (column 4),[2],4.1
